Measured values reported in patent US20230053540A1, “TREATMENT OF LIVER INJURY” (Massachusetts Institute of Technology, priority 2019, published 2023).

Test system: hepatocytes
Experiment: Seq-Well scRNA-Seq of hepatocytes after APAP overdose (signature scores, DEG vs untreated)
Assay type: in vivo, mouse
Settings: cluster A6 (APAP 6 hr)

CC(=O)Nc1ccc(O)cc1 [APAP, acetaminophen]
Iigp1 pct.1: 0.78 | Il1b avg_logFC: 0.7365 | Il1b pct.1: 0.236 | Il1r1 avg_logFC: 0.845 | Il1r1 pct.1: 0.683 | Insig2 avg_logFC: 0.6834 | Insig2 pct.1: 0.854 | Iqgap1 avg_logFC: 0.4345 | Iqgap1 pct.1: 0.162 | Itgb2 avg_logFC: 0.2628 | Itgb2 pct.1: 0.105 | Itih2 avg_logFC: 0.3109 | Itih2 pct.1: 0.893 | Jak1 avg_logFC: 0.4696 | Jak1 pct.1: 0.554 | Jmjd1c avg_logFC: 0.5262 | Jmjd1c pct.1: 0.47 | Klf6 avg_logFC: 0.6123 | Klf6 pct.1: 0.382 | Krt8 avg_logFC: 1.204 | Krt8 pct.1: 0.826 | Krt18 avg_logFC: 1.118 | Krt18 pct.1: 0.864 | Laptm5 avg_logFC: 0.3169 | Laptm5 pct.1: 0.124 | Lars2 avg_logFC: 0.5887 | Lars2 pct.1: 1 | Lgmn avg_logFC: 0.4368 | Lgmn pct.1: 0.246 | Lmo4 avg_logFC: 0.2923 | Lmo4 pct.1: 0.308 | Lpin2 avg_logFC: 0.5227 | Lpin2 pct.1: 0.745 | Lrrc58 avg_logFC: 0.9243 | Lrrc58 pct.1: 0.711 | Lyst avg_logFC: 0.3767 | Lyst pct.1: 0.31 | Lyz2 avg_logFC: 0.6523 | Lyz2 pct.1: 0.234 | Maff avg_logFC: 0.3314 | Maff pct.1: 0.224 | Malat1 avg_logFC: 1.108 | Malat1 pct.1: 0.871 | Map2k3 avg_logFC: 0.3952 | Map2k3 pct.1: 0.427 | Mat1a avg_logFC: 0.3317 | Mat1a pct.1: 0.986 | Mat2a avg_logFC: 0.4693 | Mat2a pct.1: 0.487 | Mdn1 avg_logFC: 0.2931 | Mdn1 pct.1: 0.251 | Mfsd2a avg_logFC: 0.4232 | Mfsd2a pct.1: 0.465 | Mmp8 avg_logFC: 0.3585 | Mmp8 pct.1: 0.136 | Mmp14 avg_logFC: 0.2594 | Mmp14 pct.1: 0.253 | Mrap avg_logFC: 0.8261 | Mrap pct.1: 0.606 | Mrc1 avg_logFC: 0.3063 | Mrc1 pct.1: 0.131 | Msn avg_logFC: 0.251 | Msn pct.1: 0.105 | Mt1 avg_logFC: 0.9315 | Mt1 pct.1: 0.981 | Mt2 avg_logFC: 0.6647 | Mt2 pct.1: 0.938 | Mthfd2 avg_logFC: 0.26 | Mthfd2 pct.1: 0.205 | Myh9 avg_logFC: 0.8661 | Myh9 pct.1: 0.718 | Myl12a avg_logFC: 0.3937 | Myl12a pct.1: 0.461 | Myo1e avg_logFC: 0.4916 | Myo1e pct.1: 0.475 | Ncl avg_logFC: 0.4292 | Ncl pct.1: 0.69 | Neat1 avg_logFC: 0.6234 | Neat1 pct.1: 0.31 | Nid1 avg_logFC: 0.3315 | Nid1 pct.1: 0.229 | Nolc1 avg_logFC: 0.4084 | Nolc1 pct.1: 0.363 | Nop56 avg_logFC: 0.2507 | Nop56 pct.1: 0.282 | Nop58 avg_logFC: 0.5859 | Nop58 pct.1: 0.492 | Phc2 avg_logFC: 0.3092 | Phc2 pct.1: 0.284 | Picalm avg_logFC: 0.6425 | Picalm pct.1: 0.647 | Pigr avg_logFC: 0.2627 | Pigr pct.1: 0.947 | Pla2g7 avg_logFC: 0.2737 | Pla2g7 pct.1: 0.119 | Plek avg_logFC: 0.3031 | Plek pct.1: 0.11 | Plin2 avg_logFC: 1.276 | Plin2 pct.1: 0.943 | Plscr1 avg_logFC: 0.4343 | Plscr1 pct.1: 0.329 | Ppan avg_logFC: 0.2655 | Ppan pct.1: 0.255 | Ppl avg_logFC: 0.8287 | Ppl pct.1: 0.47 | Psat1 avg_logFC: 0.3001 | Psat1 pct.1: 0.229 | Ptprc avg_logFC: 0.4072 | Ptprc pct.1: 0.153 | Rad54l2 avg_logFC: 0.3366 | Rad54l2 pct.1: 0.325 | Ranbp2 avg_logFC: 0.4808 | Ranbp2 pct.1: 0.566 | Rcan1 avg_logFC: 0.5727 | Rcan1 pct.1: 0.425 | Rell1 avg_logFC: 0.577 | Rell1 pct.1: 0.375 | Retnlg avg_logFC: 0.3746 | Retnlg pct.1: 0.129 | Retsat avg_logFC: 0.4801 | Retsat pct.1: 0.845 | Rgs2 avg_logFC: 0.3802 | Rgs2 pct.1: 0.138 | Rnf144a avg_logFC: 0.3119 | Rnf144a pct.1: 0.177 | Rock2 avg_logFC: 0.5525 | Rock2 pct.1: 0.425 | Rora avg_logFC: 0.5514 | Rora pct.1: 0.549 | S100a8 avg_logFC: 1.116 | S100a8 pct.1: 0.353 | S100a9 avg_logFC: 1.336 | S100a9 pct.1: 0.399 | Sat1 avg_logFC: 0.6622 | Sat1 pct.1: 0.47 | Sdad1 avg_logFC: 0.2844 | Sdad1 pct.1: 0.289 | Sdc3 avg_logFC: 0.318 | Sdc3 pct.1: 0.103 | Sdc4 avg_logFC: 0.4415 | Sdc4 pct.1: 0.909 | Serpina3m avg_logFC: 0.6067 | Serpina3m pct.1: 0.85 | Slc16a6 avg_logFC: 0.864 | Slc16a6 pct.1: 0.47 | Slc39a14 avg_logFC: 0.6721 | Slc39a14 pct.1: 0.678 | Son avg_logFC: 0.4342 | Son pct.1: 0.601 | Spred1 avg_logFC: 0.3351 | Spred1 pct.1: 0.308 | Sqstm1 avg_logFC: 0.6817 | Sqstm1 pct.1: 0.859 | Srgn avg_logFC: 0.926 | Srgn pct.1: 0.284 | Srxn1 avg_logFC: 1.874 | Srxn1 pct.1: 0.821 | St3gal1 avg_logFC: 0.4344 | St3gal1 pct.1: 0.473 | Stat3 avg_logFC: 0.4846 | Stat3 pct.1: 0.604 | Stk17b avg_logFC: 0.2825 | Stk17b pct.1: 0.126 | Stk40 avg_logFC: 0.4875 | Stk40 pct.1: 0.382 | Tars avg_logFC: 0.4768 | Tars pct.1: 0.666 | Tatdn2 avg_logFC: 0.309 | Tatdn2 pct.1: 0.334 | Tbc1d15 avg_logFC: 0.42 | Tbc1d15 pct.1: 0.461 | Tcerg1 avg_logFC: 0.3358 | Tcerg1 pct.1: 0.305 | Tiparp avg_logFC: 0.427 | Tiparp pct.1: 0.346 | Tjp2 avg_logFC: 0.403 | Tjp2 pct.1: 0.332 | Tmem87b avg_logFC: 0.3486 | Tmem87b pct.1: 0.351 | Tmsb4x avg_logFC: 0.7051 | Tmsb4x pct.1: 0.332 | Tnfrsf1a avg_logFC: 0.4533 | Tnfrsf1a pct.1: 0.508 | Tnfrsf12a avg_logFC: 1.081 | Tnfrsf12a pct.1: 0.623 | Tra2a avg_logFC: 0.6917 | Tra2a pct.1: 0.337 | Trp53inp1 avg_logFC: 0.8389 | Trp53inp1 pct.1: 0.637 | Tsc22d2 avg_logFC: 0.3382 | Tsc22d2 pct.1: 0.353 | Tsku avg_logFC: 0.3206 | Tsku pct.1: 0.327 | Tsr1 avg_logFC: 0.314 | Tsr1 pct.1: 0.341 | Tubb2a avg_logFC: 0.7838 | Tubb2a pct.1: 0.618 | Tubb6 avg_logFC: 0.533 | Tubb6 pct.1: 0.368 | Txnrd1 pct.1: 0.838 | Tyrobp avg_logFC: 0.4431 | Tyrobp pct.1: 0.189
